Results published in patent publication US20100210649A1, “PYRIDAZINONES AND FURAN-CONTAINING COMPOUNDS” (Sloan-Kettering Institute for Cancer Research, priority 2006, published 2010).

Key:
[1] = test system: H1650; assay: Non Small Cell Lung Cancer proliferation assay (Alamar Blue reduction), H1650; format: cell-based, human; details: Homo sapiens, NCI-H1650, dose response 10 M to 5 nM; IC50; read-out: Dose Response (uM) H1650
Outline: (§1)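 Proliferation after 48 h compound exposure (1% DMSO final, 37 °C) was read by Alamar Blue reduction over an additional 48 h, fluorescence at 530 nm excitation/590 nm emission. Dose-response runs seeded 250 cells/well; DMSO-only wells as high control.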

[2] = test system: H1734; assay: Non Small Cell Lung Cancer proliferation assay (Alamar Blue reduction), H1734; format: cell-based, human; details: Homo sapiens, NCI-H1734; read-out: Dose Response (uM) H1734
Protocol: (§2) These cells have a doubling time of 1-2 days. All cell types are adherent and grow in colonies. The cells should be kept at a density between 50,000 cells/mL -500,000 cells/mL to provide for optimum growth and adequate nutrition. The cell line should be maintained at 37° C. in a humidified atmosphere with 5% CO2 in a sterile cell culture incubator.
(§3) Non Small Cell Lung Cancer Proliferation Assay.
(§4) High Controls for this assay are made by treating Non Small Cell Lung Cancer cells with 5 ul of 10% DMSO. [Final concentration in this assay is 1% DMSO].
(§5) Important Note: All compounds for testing in this assay should be done at the final concentration of 1% DMSO.
(§6) After addition, the cells are placed in cell culture incubator at 37° C. for 48 hours for complete treatment.
(§7) After drug treatment, cytotoxicity is measured by Alamar Blue reduction.
(§8) The cells are incubated for 48 hours at 37° C. to complete the Alamar Blue reduction.
(§9) The final step in the assay is to measure the amount of Alamar Blue reduction. […] The Alamar Blue fluorescence is measured at an excitation of 530 nm and emission of 590 nm.
(§10) For the NSCLC project, the cell based assay was screened against a small molecule library of approximately 200,000 compounds. The compound library is stored in our automated robotic freezer (Biophile) at −20° C. in 100% DMSO. Compound freeze and thaw cycles are kept to a minimum. […] This assay was performed on a fully automated linear track robotic platform (CRS F3 Robot System, Thermo Electron Corp., Ontario, Canada) utilizing several integrated peripherals for plate handling, liquid dispensing, and readout detection. […] The microplates are then placed at 37° C. for 48 hours to complete treatment of cells with compounds. Next, 5 ul of alamar blue was added using a liquid dispenser (Flexprop Precision Dispenser, Perkin Elmer, Mass., USA) and incubated for 48 hours at 37° C. The alamar blue prompt fluorescence was measured on Victor V (Victor^3 V, Perkin Elmer, Mass., USA) and output data files were loaded into ORIS (Oncology Research Informatics System, MSKCC, NY, USA), a screening data acquisition and analysis platform.
(§11) The dose response studies were done with the following standard procedure. First, the cells were counted and dispensed at 250 cells/well into 384-well microplates with compound. The cells were incubated for 48 hours at 37 C to complete treatment, and then alamar blue was added for an additional 48 hours. Finally, alamar blue reduction was measured and the data was loaded into ORIS, our data screening acquisition platform.

[3] = test system: H2030; assay: Non Small Cell Lung Cancer proliferation assay (Alamar Blue reduction), H2030; format: cell-based, human; details: Homo sapiens, NCI-H2030, dose response 10 M to 5 nM; IC50; read-out: Dose Response (uM) H2030
Outline: as §1

[4] = test system: H3255; assay: Non Small Cell Lung Cancer proliferation assay (Alamar Blue reduction), H3255; format: cell-based, human; details: Homo sapiens, NCI-H3255, dose response 10 M to 5 nM; IC50; read-out: Dose Response (uM) H3255
Outline: as §1

[5] = in vitro; details: human
Protocol: NHBE (normal human bronchiolar epithelial cells) are primary cells obtained from donor lungs and commercially available from Cambrex. The HPL1D (human peripheral lung epithelial) cell line has been immortalized with the SV40 large T-antigen. WI-38: human lung fibroblast cell line. HPLID, NHBE and WI-38 cells will serve as controls in the chemical screens. WT: wildtype; WT*: over-expressed wildtype.
Compounds were tested in dose response studies from […] to 5 nM against several non small cell lung cancer lines: H358, H827, H1118, H1650, H1734, H1975, H2030, and H3255, and were also studied in a 72 hour cytotoxicity assay against the NHBE and WI-38 cell lines.

[6] = test system: H358; assay: Non Small Cell Lung Cancer proliferation assay (Alamar Blue reduction), H358; format: cell-based; details: Homo sapiens, NCI-H358; read-out: Dose Response (uM) H358
Protocol: as §2, §3, §4, §5, §6, §7, §8, §9, §10, §11

[7] = test system: H1975; assay: Non Small Cell Lung Cancer proliferation assay (Alamar Blue reduction), H1975; format: cell-based, human; details: Homo sapiens, NCI-H1975, dose response 10 M to 5 nM; IC50; read-out: Dose Response (uM) H1975
Outline: as §1

[8] = test system: H1118; assay: Non Small Cell Lung Cancer proliferation assay (Alamar Blue reduction), H1118; format: cell-based; details: Homo sapiens; read-out: Dose Response (uM) H1118
Protocol: (§12) Non Small Cell Lung Cancer Proliferation Assay. To perform the assay, the Non Small Cell Lung Cancer lines are diluted in media and plated into 384 well microplates at a final density of 250 cells in […]. To ensure consistency and minimal pipetting error, the cells are plated using the Multidrop 384 with the following settings: Rocker Switch set at 384, Volume 45 and Column 24.
(§13) Low Controls for this assay are made by treating Non Small Cell Lung Cancer cells with 5 ul of staurosporine at 250 uM in 10% DMSO and 1% SDS. [Final concentration in this assay is 25 uM staurosporine in 1% DMSO and 0.1% SDS.]
as §4
(§14) The remaining wells of the 384 microplate may be treated with different compounds depending on the study. Important Note: All compounds for testing in this assay should be done at the final concentration of 1% DMSO.
as §6
(§15) After drug treatment, cytotoxicity is measured by Alamar Blue reduction. 5 μL of Alamar Blue is added to the 384 microplates using the Flexdrop.
as §8, §9
(§16) For the NSCLC project, the cell based assay was screened against a small molecule library of approximately 200,000 compounds. The compound library is stored in our automated robotic freezer (Biophile) at −20° C. in 100% DMSO. Compound freeze and thaw cycles are kept to a minimum. Compounds for use are diluted into the appropriate concentration and plated into 384 well microplates using our custom built low volume 384-well head tool (TPS 384, Apricot Designs Inc., CA, USA). This assay was performed on a fully automated linear track robotic platform (CRS F3 Robot System, Thermo Electron Corp., Ontario, Canada) utilizing several integrated peripherals for plate handling, liquid dispensing, and readout detection. First, non-small cell lung cancer cell lines are dispensed into 384 well microplates (Corning #3712 Tissue Culture Treated Plate, Corning, N.Y., USA) with 5 μL of test compounds at 100 uM in 10% DMSO for screening studies or […] in 10% DMSO to 50 nM in 10% DMSO for dose response studies. The microplates are then placed at 37° C. for 48 hours to complete treatment of cells with compounds. Next, 5 ul of alamar blue was added using a liquid dispenser (Flexprop Precision Dispenser, Perkin Elmer, Mass., USA) and incubated for 48 hours at 37° C. The alamar blue prompt fluorescence was measured on Victor V (Victor^3 V, Perkin Elmer, Mass., USA) and output data files were loaded into ORIS (Oncology Research Informatics System, MSKCC, NY, USA), a screening data acquisition and analysis platform.
as §11

[9] = test system: H827; assay: Non Small Cell Lung Cancer proliferation assay (Alamar Blue reduction), H827; format: cell-based; details: Homo sapiens; read-out: Dose Response (uM) H827
Protocol: as §2, with “[…] are grown and maintained in Corning 175 cm2 flasks in RPMI 1640 media supplemented with 10% FBS, 1% antibiotic solution, 1% additional glutamine and pyruvate. These” for “These”
as §12, §13, §4, §14, §6, §15, §8, §9, §16

| Compound | IC50 [1] | IC50 [2] | IC50 [3] | IC50 [4] | IC50 at 72 h ([5]; CytoTox (uM) NHBE) | IC50 at 72 h ([5]; CytoTox (uM) WI-38) | IC50 [6] | IC50 [7] | IC50 [8] | IC50 [9] |
| --- | --- | --- | --- | --- | --- | --- | --- | --- | --- | --- |
| COc1ccc(=O)n(-c2cccc(C)c2)n1 [compound 257029] | > 10 µM | > 10 µM | > 10 µM | > 10 µM | > 10 µM | > 10 µM | > 10 µM | > 10 µM |  |  |
| Cc1cccc(-n2ncc(N=[N+]=[N-])c(Cl)c2=O)c1 [compound 267082] | > 10 µM | > 10 µM | > 10 µM | > 10 µM | > 10 µM | > 10 µM | > 10 µM | > 10 µM |  |  |
| N/N=C1\C=NN(c2ccccc2)C(=O)C1Cl (stereo not drawn) [compound 257023] | > 10 µM | > 10 µM | > 10 µM | > 10 µM | > 10 µM | > 10 µM | > 10 µM | > 10 µM | > 10 µM | > 10 µM |
| O=c1c(Br)c(SCc2ccccc2)cnn1-c1ccccc1 [compound 257021] | > 10 µM | > 10 µM | > 10 µM | > 10 µM | > 10 µM | > 10 µM | > 10 µM | > 10 µM | > 10 µM | > 10 µM |
| O=C(O)CCC(=O)NCCCOc1cccc(-n2ncc(Br)c(Br)c2=O)c1 [compound 273633] | > 10 µM | > 10 µM | > 10 µM | > 10 µM | > 10 µM | > 10 µM | > 10 µM | > 10 µM |  |  |
| Cc1cccc(-n2ncc(I)cc2=O)c1 [compound 267086] | > 10 µM | > 10 µM | > 10 µM | > 10 µM | > 10 µM | > 10 µM | > 10 µM | 6.76 µM |  |  |
| Cc1cccc(-n2nc(OCCCNC(=O)CCC(=O)O)c(Cl)c(Cl)c2=O)c1 [compound 273632] | > 10 µM | > 10 µM | > 10 µM | > 10 µM | > 10 µM | > 10 µM | > 10 µM | > 10 µM |  |  |
